Data on 27 molecules can be found in patent US8916593B2, “Alkoxy-substituted 2-aminopyridines as ALK inhibitors” (Pfizer Inc., priority 2010, dated 2014).

The target in one assay is T1, cMet enzyme (Homo sapiens, UniProt P08581).
T1 construct: RTC Lot#032006
The experiment in a line: cMet enzymatic activity assay. The conditions noted are these: purified cMet enzyme 7.5 nM, ATP 17 μM (Km). The class given is biochemical. The procedure: cMet Enzymatic Activity Assay
Compounds were added at a final concentration of 2% DMSO in half-log dilutions, starting at 20 μM final concentration. The reactions were initiated by addition of 10 μL of peptide/ATP mix to 10 μL enzyme and 5 μL of compound in 384-well plate. […] Substrate and phosphorylated product were separated with an upstream voltage of −2650 V, a downstream voltage of −500V, and a screen pressure of −1.5 psi. The relative peak heights of substrate and product were measured and ratios were calculated using HTS Well Analyzer Software version 5.2.43 from the manufacturer.

In assay [1] the target is EML4-ALK wt v1 in NIH-3T3 cells (Homo sapiens, UniProt Q9UM73).
Sequence of EML4-ALK wt v1 in NIH-3T3 cells (Q9UM73 with tags, fused parts or gaps): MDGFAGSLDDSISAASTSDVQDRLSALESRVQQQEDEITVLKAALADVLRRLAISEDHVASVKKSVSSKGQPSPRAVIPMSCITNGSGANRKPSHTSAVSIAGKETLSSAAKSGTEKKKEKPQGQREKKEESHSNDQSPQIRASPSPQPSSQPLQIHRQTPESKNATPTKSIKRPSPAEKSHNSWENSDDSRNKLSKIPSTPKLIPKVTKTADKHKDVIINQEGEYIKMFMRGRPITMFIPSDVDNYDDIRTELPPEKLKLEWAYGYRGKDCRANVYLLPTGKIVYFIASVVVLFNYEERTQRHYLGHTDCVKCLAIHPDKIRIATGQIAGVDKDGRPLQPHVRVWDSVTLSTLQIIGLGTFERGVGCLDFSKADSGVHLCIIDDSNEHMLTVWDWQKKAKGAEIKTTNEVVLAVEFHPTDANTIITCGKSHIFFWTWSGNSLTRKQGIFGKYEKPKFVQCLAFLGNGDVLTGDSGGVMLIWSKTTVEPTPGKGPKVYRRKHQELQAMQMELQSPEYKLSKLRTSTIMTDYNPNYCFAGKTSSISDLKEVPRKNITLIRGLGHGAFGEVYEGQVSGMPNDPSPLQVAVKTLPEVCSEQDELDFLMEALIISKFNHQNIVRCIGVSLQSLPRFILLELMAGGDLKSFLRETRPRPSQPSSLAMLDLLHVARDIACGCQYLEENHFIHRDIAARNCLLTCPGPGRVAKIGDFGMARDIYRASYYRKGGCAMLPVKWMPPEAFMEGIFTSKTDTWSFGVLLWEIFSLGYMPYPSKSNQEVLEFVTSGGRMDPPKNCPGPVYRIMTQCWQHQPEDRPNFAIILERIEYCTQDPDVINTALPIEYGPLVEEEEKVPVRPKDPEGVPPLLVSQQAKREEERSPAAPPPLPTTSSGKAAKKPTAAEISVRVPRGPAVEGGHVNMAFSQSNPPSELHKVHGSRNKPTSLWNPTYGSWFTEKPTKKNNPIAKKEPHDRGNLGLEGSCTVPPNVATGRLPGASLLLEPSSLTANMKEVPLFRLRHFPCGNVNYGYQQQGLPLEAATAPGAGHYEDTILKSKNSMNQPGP
In assay [2] the target is T2, human recombinant wild-type ALK kinase domain (amino acids 1093-1411) (Homo sapiens, UniProt Q9UM73).
T2 construct: ALK kinase domain (amino acids 1093-1411); made in house
T2 sequence (Q9UM73 1093-1411): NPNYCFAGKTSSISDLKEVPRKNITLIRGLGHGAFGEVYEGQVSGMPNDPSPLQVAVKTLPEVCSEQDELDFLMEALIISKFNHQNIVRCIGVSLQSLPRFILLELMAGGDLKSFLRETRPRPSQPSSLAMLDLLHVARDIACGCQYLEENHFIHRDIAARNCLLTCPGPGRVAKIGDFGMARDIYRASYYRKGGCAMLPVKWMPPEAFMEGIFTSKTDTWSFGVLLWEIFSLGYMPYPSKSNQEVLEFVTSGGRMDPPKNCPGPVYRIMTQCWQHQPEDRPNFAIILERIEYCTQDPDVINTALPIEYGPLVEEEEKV
Put plainly: ALK enzyme assay 2 (microfluidic mobility shift assay).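 Also: kinase reaction run 1 h at room temperature, conversion quantified by electrophoretic separation of fluorescent peptide substrate from phosphorylated product, about 15-20% turnover without inhibitor.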 Format: biochemical.
Method: The reactions were incubated for 1 h at room temperature, stopped by the addition of 0.1 M EDTA, pH 8, and the extent of reactions (˜15-20% conversion with no inhibitor) was determined after electrophoretic separation of the fluorescently labeled peptide substrate and phosphorylated product on an LabChip EZ Reader II (Caliper Life Sciences, Hopkinton, Mass.).

T1 sequence (P08581 25-1390): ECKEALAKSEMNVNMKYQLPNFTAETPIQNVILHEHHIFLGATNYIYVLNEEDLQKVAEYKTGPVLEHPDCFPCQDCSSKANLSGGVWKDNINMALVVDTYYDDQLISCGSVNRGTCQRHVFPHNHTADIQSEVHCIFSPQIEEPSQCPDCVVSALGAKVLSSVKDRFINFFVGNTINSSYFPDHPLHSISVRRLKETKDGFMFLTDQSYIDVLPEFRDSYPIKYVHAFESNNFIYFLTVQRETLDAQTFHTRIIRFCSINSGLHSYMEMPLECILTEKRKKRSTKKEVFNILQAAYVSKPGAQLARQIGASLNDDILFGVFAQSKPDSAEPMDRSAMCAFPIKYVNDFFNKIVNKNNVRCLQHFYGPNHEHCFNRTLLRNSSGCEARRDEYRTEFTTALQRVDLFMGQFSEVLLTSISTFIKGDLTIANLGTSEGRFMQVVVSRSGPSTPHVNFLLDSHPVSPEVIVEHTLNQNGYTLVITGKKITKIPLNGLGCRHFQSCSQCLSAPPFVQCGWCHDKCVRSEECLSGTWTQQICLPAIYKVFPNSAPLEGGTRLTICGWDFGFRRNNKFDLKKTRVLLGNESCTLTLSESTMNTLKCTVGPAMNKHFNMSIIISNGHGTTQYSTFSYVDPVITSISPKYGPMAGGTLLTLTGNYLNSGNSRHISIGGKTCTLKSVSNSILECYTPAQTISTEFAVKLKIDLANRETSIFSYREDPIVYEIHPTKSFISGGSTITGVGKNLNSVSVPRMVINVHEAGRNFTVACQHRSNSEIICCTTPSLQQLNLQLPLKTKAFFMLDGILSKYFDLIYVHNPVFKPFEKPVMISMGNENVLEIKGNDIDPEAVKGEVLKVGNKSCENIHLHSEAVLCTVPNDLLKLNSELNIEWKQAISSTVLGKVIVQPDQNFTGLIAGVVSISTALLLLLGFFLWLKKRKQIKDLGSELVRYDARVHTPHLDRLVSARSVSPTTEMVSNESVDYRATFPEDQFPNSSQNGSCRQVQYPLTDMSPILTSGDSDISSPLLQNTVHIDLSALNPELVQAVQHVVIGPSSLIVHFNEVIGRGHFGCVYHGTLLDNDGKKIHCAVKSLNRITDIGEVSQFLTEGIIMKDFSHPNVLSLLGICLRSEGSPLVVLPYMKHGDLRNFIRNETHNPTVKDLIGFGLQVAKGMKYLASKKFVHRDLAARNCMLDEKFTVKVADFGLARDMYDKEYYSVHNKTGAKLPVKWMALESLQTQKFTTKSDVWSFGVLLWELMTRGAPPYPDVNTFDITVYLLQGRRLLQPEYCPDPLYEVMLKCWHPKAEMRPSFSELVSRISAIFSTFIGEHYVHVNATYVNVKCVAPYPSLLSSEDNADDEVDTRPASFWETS

As to `C[C@@H](Oc1cc(-c2cnnn2C)cnc1N)c1cc(F)ccc1-n1nccn1` [Example 21, 3-{(1R)-1-[5-fluoro-2-(2H-1,2,3-triazol-2-yl)phenyl]-ethoxy)-5-(1-methyl-1H-1,2,3-triazol-5-yl)pyridin-2-amine], half-maximal inhibition at cMet enzyme (IC50) required 14400 nM.
The same measure, in the same setting: under `C[C@@H](Oc1cc(-c2ccnn2C)cnc1N)c1cc(F)ccc1-n1nccn1` [Example 30, 3-{(1R)-1-[5-fluoro-2-(2H-1,2,3-triazol-2-yl)phenyl]ethoxy}-5-(1-methyl-1H-pyrazol-5-yl)pyridin-2-amine] stands 6110 nM; under `CC(Oc1cc(-c2ccnn2C)cnc1N)c1cc(F)ccc1-n1nccn1` (stereo not shown) [Example 31, 3-{1-[5-fluoro-2-(2H-1,2,3-triazol-2-yl)phenyl]-ethoxy)-5-(1-methyl-1H-pyrazol-5-yl)pyridin-2-amine], 13000 nM; under `Cc1[nH]ncc1-c1cnc(N)c(OC(C)c2cc(F)ccc2F)c1` (stereo not shown) [Example 35, 3-[1-(2,5-difluorophenyl)ethoxy]-5-(5-methyl-1H-pyrazo-4-yl)pyridin-2-amine], 5610 nM.
On to `Cc1n[nH]cc1-c1cnc(N)c(OC(C)c2cc(F)ccc2C#N)c1` (stereo not shown) [Example 38, 2-(1-{[2-amino-5-(3-methyl-1H-pyrazol-4-yl)pyridin-3-yl]oxy}ethyl)-4-fluorobenzonitrile], for which the midpoint of inhibition against cMet enzyme, the IC50, lay at 4050 nM.
For the molecule `C[C@@H](Oc1cc(-c2ccc(OC3CCNCC3)nc2)cnc1N)c1cc(F)ccc1-n1nccn1` [Example 122, 5-{(1R)-1-[5-fluoro-2-(2H-1,2,3-triazol-2-yl)phenyl]ethoxy}-6′-(piperidin-4-yloxy)-3,3′-bipyridin-6-amine], 1.15 nM corresponded to half-maximal inhibition in assay [1] (IC50). The inhibitory constant (Ki) (in general, the equilibrium dissociation constant of an inhibitor or competing ligand from its target) in assay [2] was under 0.2 nM.
Taken in the same sequence, the figures for `Cc1nn(C2CCNCC2)cc1-c1cnc(N)c(O[C@H](C)c2cc(F)ccc2-n2nccn2)c1` [Example 124, 3-{(1R)-1-[5-fluoro-2-(2H-1,2,3-triazol-2-yl)phenyl]ethoxy}-5-[3-methyl-1-(piperidin-4-yl)-1H-pyrazol-4-yl]pyridin-2-amine] were 2.04 nM and under 0.2 nM.
For `Cc1c(-c2cnc(N)c(O[C@H](C)c3cc(F)ccc3-n3nccn3)c2)cnn1C1CCNCC1` [Example 125, 3-{(1R)-1-[5-fluoro-2-(2H-1,2,3-triazol-2-yl)phenyl]ethoxy}-5-[5-methyl-1-(piperidin-4-yl)-1H-pyrazol-4-yl]pyridin-2-amine], half-maximal inhibition in assay [1] (IC50) required 3.7 nM. Moreover, in assay [2], the Ki was under 0.2 nM.
As to `Cc1n[nH]c(C)c1-c1cnc(N)c(O[C@H](C)c2cc(F)ccc2-n2nccn2)c1` [Example 126, 5-(3,5-Dimethyl-1H-pyrazol-4-yl)-3-{(1R)-1-[5-fluoro-2-(2H-1,2,3-triazol-2-yl)phenyl]ethoxy}pyridin-2-amine], it took 12.1 nM to reach half-maximal inhibition in assay [1] (IC50). Also, the Ki in assay [2] is under 0.193 nM.
As to `Cc1nn([C@H]2CCS(=O)(=O)C2)c(C)c1-c1cnc(N)c(O[C@H](C)c2cc(F)ccc2-n2nccn2)c1` [Example 127, 5-{1-[(3S)-1,1-dioxidotetrahydrothiophen-3-yl]-3,5-dimethyl-1H-pyrazol-4-yl}-3-{(1R)-1-[5-fluoro-2-(2H-1,2,3-triazol-2-yl)phenyl]ethoxy}pyridin-2-amine], the half-inhibitory concentration (IC50) (in general, the concentration at which inhibition is half-maximal) in assay [1] is 2.54 nM. The Ki in assay [2] was under 0.2 nM.
Taken in the same sequence, the figures for `C[C@@H](Oc1cc(-c2cnn(C3CCN(C(=O)CN(C)C)CC3)c2)cnc1N)c1cc(F)ccc1-n1nccn1` [Example 128, 1-{4-[4-(6-amino-5-{(1R)-1-[5-fluoro-2-(2H-1,2,3-triazol-2-yl)phenyl]ethoxy}pyridin-3-yl)-1H-pyrazol-1-yl]piperidin-1-yl}-2-(dimethylamino)ethanone] were 9.8 nM and under 0.2 nM.
In assay [1], `C[C@@H](Oc1cc(-c2ccnc(F)c2F)cnc1N)c1cc(F)ccc1-n1nccn1` [Example 129, 2′,3′-difluoro-5-{(1R)-1-[5-fluoro-2-(2H-1,2,3-triazol-2-yl)phenyl]ethoxy}-3,4′-bipyridin-6-amine] showed an IC50 of 223 nM. In addition, the Ki in assay [2] came to 5.5 nM.
In assay [1], `C[C@@H](Oc1cc(-c2ccnc(N3CC(O)C3)c2F)cnc1N)c1cc(F)ccc1-n1nccn1` [Example 130, 1-(6-amino-3′-fluoro-5-{(1R)-1-[5-fluoro-2-(2H-1,2,3-triazol-2-yl)phenyl]ethoxy}-3,4′-bipyridin-2′-yl)azetidin-3-ol] gave an IC50 of 2.25 nM. Also, the Ki in assay [2] stood at 0.26 nM.
The molecule `C[C@@H](Oc1cc(-c2ccnc(N3CCOCC3)c2F)cnc1N)c1cc(F)ccc1-n1nccn1` [Example 131, 3′-fluoro-5-{(1R)-1-[5-fluoro-2-(2H-1,2,3-triazol-2-yl)phenyl]ethoxy}-2′-(morpholin-4-yl)-3,4′-bipyridin-6-amine] came in with an IC50 in assay [1] of 17.6 nM. For the same molecule, in assay [2], the Ki was 0.638 nM.
Taken in the same sequence, the figures for `C[C@@H](Oc1cc(-c2ccnc(N3CCN(C)CC3)c2F)cnc1N)c1cc(F)ccc1-n1nccn1` [Example 132, 3′-fluoro-5-{(1R)-1-[5-fluoro-2-(2H-1,2,3-triazol-2-yl)phenyl]ethoxy}-2,-(4-methylpiperazin-1-yl)-3,4′-bipyridin-6-amine] were 5.67 nM and under 0.2 nM.
On the same counts, the results for `COc1ccc(F)cc1C(C)Oc1cc(-c2nsc(S(C)(=O)=O)n2)cnc1N` (stereo not shown) [Example 133, 3-[1-(5-fluoro-2-methoxyphenyl)ethoxy]-5-[5-(methylsulfonyl)-1,2,4-thiadiazol-3-yl]pyridin-2-amine] are 687 nM and 1.28 nM.
Turning to `CNCc1ccc(-c2cnc(N)c(OC(C)c3cc(F)ccc3OC)c2)cc1S(C)(=O)=O` (stereo not shown) [Example 134, 3-[1-(5-fluoro-2-methoxyphenyl)ethoxy]-5-{4-[(methylamino)methyl]-3-(methylsulfonyl)phenyl}pyridin-2-amine], in assay [1], the IC50 amounted to 9.1 nM. Further, the Ki in assay [2] is 0.12 nM.
For the molecule `COc1ccc(F)cc1C(C)Oc1cc(-c2ccc(CO)c(S(C)(=O)=O)c2)cnc1N` (stereo not shown) [Example 136, [4-{6-amino-5-[1-(5-fluoro-2-methoxyphenyl)ethoxy]pyridin-3-yl}-2-(methylsulfonyl)phenyl]methanol], in assay [1], the IC50 turned out to be 8.6 nM. Besides, the inhibition constant (Ki) in assay [2] came to 0.26 nM.
As for `COc1ccc(F)cc1C(C)Oc1cc(-c2sc(CO)nc2C)cnc1N` (stereo not shown) [Example 137, (5-{6-amino-5-[1-(5-fluoro-2-methoxyphenyl)ethoxy]pyridin-3-yl}-4-methyl-1,3-thiazol-2-yl)methanol], the IC50 in assay [1] worked out at 2.59 nM. In assay [2], the Ki came to 0.398 nM.
Taken in the same sequence, the figures for `COc1ccc(F)cc1C(C)Oc1cc(-c2ccc(C(C)N)nc2)cnc1N` (stereo not shown) [Example 138, 6′-(1-aminoethyl)-5-[1-(5-fluoro-2-methoxyphenyl)ethoxy]-3,3′-bipyridin-6-amine] were 8.33 nM and 0.32 nM.
Taken in the same sequence, the figures for `Cc1nn(C2CCNC2=O)cc1-c1cnc(N)c(O[C@H](C)c2cc(F)ccc2-n2nccn2)c1` (stereo partly drawn) [Example 139, 3-[4-(6-amino-5-{(1R)-1-[5-fluoro-2-(2H-1,2,3-triazol-2-yl)phenyl]ethoxy}pyridin-3-yl)-3-methyl-1H-pyrazol-1-yl]pyrrolidin-2-one] were 2.82 nM and under 0.2 nM.
On the same counts, the results for `C[C@@H](Oc1cc(-c2cn([C@@H]3C[C@H]4CC[C@@H](C3)N4)nc2C#N)cnc1N)c1cc(F)ccc1-n1nccn1` [Example 140, 4-(6-amino-5-{(1R)-1-[5-fluoro-2-(2H-1,2,3-triazol-2-yl)phenyl]ethoxy}pyridin-3-yl)-1-[(3-exo)-8-azabicyclo[3.2.1]oct-3-yl]-1H-pyrazole-3-carbonitrile] are 15.9 nM and under 0.2 nM.
Molecule `C[C@@H](Oc1cc(-c2cnn([C@@H]3C[C@H]4CC[C@@H](C3)N4)c2C#N)cnc1N)c1cc(F)ccc1-n1nccn1` [Example 141, 4-(6-amino-5-{(1R)-1-[5-fluoro-2-(2H-1,2,3-triazol-2-yl)phenyl]ethoxy}pyridin-3-yl)-1-[(3-exo)-8-azabicyclo[3.2.1]oct-3-yl]-1H-pyrazole-5-carbonitrile] showed an IC50 in assay [1] of 3.5 nM. Besides, the Ki in assay [2] is under 0.2 nM.
On the same counts, the results for `CNS(=O)(=O)c1cc(-c2cnc(N)c(O[C@H](C)c3cc(F)ccc3-n3nccn3)c2)ccc1OC` [Example 142, 5-(6-amino-5-{(1R)-1-[5-fluoro-2-(2H-1,2,3-triazol-2-yl)phenyl]ethoxy}pyridin-3-yl)-2-methoxy-N-methylbenzenesulfonamide] are 3.75 nM and under 0.2 nM.
On to `CNS(=O)(=O)c1ccc(OC)c(-c2cnc(N)c(O[C@H](C)c3cc(F)ccc3-n3nccn3)c2)c1` [Example 143, 3-(6-amino-5-{(1R)-1-[5-fluoro-2-(2H-1,2,3-triazol-2-yl)phenyl]ethoxy}pyridin-3-yl)-4-methoxy-N-methylbenzenesulfonamide], for which the midpoint of inhibition in assay [1], the IC50, lay at 8.98 nM. The Ki in assay [2] is under 0.2 nM.
Taken in the same sequence, the figures for `COc1ccc(-c2cnc(N)c(O[C@H](C)c3cc(F)ccc3-n3nccn3)c2)cc1S(N)(=O)=O` [Example 144, 5-(6-amino-5-{(1R)-1-[5-fluoro-2-(2H-1,2,3-triazol-2-yl)phenyl]ethoxy}pyridin-3-yl)-2-methoxybenzenesulfonamide] were 2.45 nM and under 0.2 nM.
On the same counts, the results for `CCc1nc(CS(C)(=O)=O)sc1-c1cnc(N)c(O[C@H](C)c2cc(F)ccc2-n2nccn2)c1` [Example 145, (R)-5-(4-ethyl-2-((methylsulfonyl)methyl)thiazol-5-yl)-3-(1-(5-fluoro-2-(2H-1,2,3-triazol-2-yl)phenyl)ethoxy)pyridin-2-amine] are 10.5 nM and under 0.2 nM.
